Test results: US12296009B2, “Immunogenic composition for the treatment of cancer” (APGEN THERAPUETICS AB, priority 2017, dated 2025)

How the values were obtained:
HLA class I = HLA class I expression on tumor cells by flow cytometry; assay type: cell-based, human; conditions: for HLA class I induction by IFNγ in combination with BETi: increasing BETi concentrations with a standard concentration of IFNγ (FIG. 5)
Protocol: (§1) Flow cytometry was done after staining with the following antibodies: anti-human HLA-ABC APC-Cy7 (clone W6/32; Biolegend, San Diego, CA, USA), CD274 BV786 (clone MIH1; BD Biosciences, Franklin lakes, NJ, USA). All data were acquired on a Novocyte 2000 [?] flow cytometer (Acea Biosciences, San Diego, CA, USA) were analyzed using FlowJo software version 10 (Treestar).
(§2) We show herein that treating patient-derived early-passage melanoma cell lines with JQ1 enhances recognition by autologous TIL. […] Along with this, PD-L1 and HLA class I expression were assessed by flow cytometry in pretreated tumor cells to find out whether functional observations in the tumor-TIL co-cultures would be associated with changes in PD-L1 expression or HLA class I expression, both markers being key determinants of T-cell activation upon target cell recognition.

KADA tumor cells = experiment: Co-culture of pretreated KADA tumor cells with autologous TIL, IFNγ ELISA on supernatant; assay type: cell-based, human
Protocol: (§3) Cells were subsequently trypsinized, washed and co-cultured for 24 hours with autologous tumor-infiltrating lymphocytes (TIL). Co-culture supernatants were assessed by ELISA for IFNγ levels, as a measure for tumor recognition by the TIL.
(§4) The early-passage melanoma cell lines ANRU, ROAL and KADA were established from patients at the oncology clinic at Karolinska University Hospital (ethical permit: #2011/143-32/1) based on a published protocol.21 Mycoplasma-free (MycoAlert kit) cell lines were in their 15th to 45th passage when used in this study.
(§5) Culture and expansion of tumor-infiltrating lymphocytes was done as published before.^4 A piece of the tumor (approximately 0.5 cm3) was minced into 1 mm3 pieces. Each piece was placed in one well of a 24-well plate containing 1 mL/well CellGro medium supplemented with 2% autologous plasma (generated by centrifugation and heat-inactivation of plasma collected on the day of surgery) and 6,000 IU/mL IL-2 (Proleukin, Novartis, Basel, Switzerland). On day 1 of culture, half of the medium volume in each well was replaced with fresh medium supplemented with plasma and IL-2. After 3-4 days of culture, lymphocytes could usually be seen emerging from the tumor piece. Cultures were monitored regularly and split before reaching confluence. After approximately 2 weeks, expanding wells were pooled and counted. […] At the end of culture, cells were harvested, pooled, characterized, counted and frozen.
as §2

PD-L1 = PD-L1 expression on tumor cells by flow cytometry; assay type: cell-based, human; conditions: 72 hours JQ1 and/or IFNγ
Protocol: as §1, §2

[1] = test system: antigen-presentation machinery (APM); experiment: mRNA expression of antigen-presentation machinery components by qPCR; assay type: cell-based, human
Protocol: (§6) This was most apparent for HLA class I heavy chain, and overall was most clearly seen in A375 cells.
Moreover, the presence of a HLA class I blocking antibody always fully abrogated T-cell recognition in co-cultures with pretreated tumors. […] Therefore, we studied mRNA and protein expression of well-known components of the antigen-presentation machinery (APM) after pretreatment with JQ1 alone and/or IFNγ.
(§7) To study the time kinetics of these effects, the ANRU cell line was treated in the same way for 12, 24, 48 and 72 hours. […] This was most apparent for HLA class I heavy chain, and overall was most clearly seen in A375 cells.

ROAL tumor cells = experiment: Co-culture of pretreated ROAL tumor cells with autologous TIL, IFNγ ELISA on supernatant; assay type: cell-based, human
Protocol: as §3, §4, §5, §2

[2] = test system: antigen-presentation machinery (APM); experiment: Western blot of antigen-presentation machinery components; assay type: cell-based, human; conditions: ANRU, ROAL, KADA and A375 cells, 72 hours JQ1 and/or IFNγ; most clearly in A375
Protocol: as §6, §7

JAK1 = JAK1 mRNA expression by RT-qPCR; assay type: cell-based, human; conditions: ANRU, ROAL and A375 cells, JQ1 by itself and in combination
Excerpt: (§8) (B) mRNA expression levels, measured by RT-qPCR, in ANRU, ROAL and A375 cells of STAT1 and JAK1, two proteins crucially involved in signaling downstream of IFNγ ligation to its cognate receptor.

A375 tumor cells = experiment: Co-culture of pretreated A375 tumor cells with allogeneic T cells, IFNγ ELISA on supernatant; assay type: cell-based, human; conditions: A375, 72 hours JQ1 alone or in combination with IFNγ, 24 hours co-culture with allogeneic T cells
MYC = MYC expression by western blot; assay type: cell-based; conditions: 72 hours JQ1 alone or in combination with IFNγ
HLA class II = HLA class II expression on tumor cells by flow cytometry; assay type: cell-based, human
IDO = IDO expression in tumor cells by flow cytometry; assay type: cell-based, human; conditions: early-passage melanoma cell lines, 72 hours JQ1 and/or IFNγ (FIG. 6)
ANRU tumor cells = experiment: Co-culture of pretreated ANRU tumor cells with autologous TIL, IFNγ ELISA on supernatant; assay type: cell-based, human; conditions: for Time kinetics of sensitization for recognition by TIL: ANRU pretreated 12, 24, 48 and 72 hours; for Time kinetics of sensitization for recognition by TIL / T-cell recognition by autologous TIL (IFNγ production in co-culture): 24 hours co-culture
Protocol: Tumor cells were also co-cultured with unsorted TIL, and TIL without specificity for the aforementioned tumor antigens (designated ‘neg’).
as §3, §4
Culture and expansion of tumor-infiltrating lymphocytes was done as published before.^4 A piece of the tumor (approximately 0.5 cm3) was minced into 1 mm3 pieces. Each piece was placed in one well of a 24-well plate containing 1 mL/well CellGro medium supplemented with 2% autologous plasma (generated by centrifugation and heat-inactivation of plasma collected on the day of surgery) and 6,000 IU/mL IL-2 (Proleukin, Novartis, Basel, Switzerland). On day 1 of culture, half of the medium volume in each well was replaced with fresh medium supplemented with plasma and IL-2. After 3-4 days of culture, lymphocytes could usually be seen emerging from the tumor piece. Cultures were monitored regularly and split before reaching confluence. After approximately 2 weeks, expanding wells were pooled and counted. To generate large T cell numbers, TIL were cultured for approximately 14 days in presence of autologous, irradiated feeders (40 Gy, TIL:feeder ratio 1:50-1:80) with 300 IU/mL IL-2 and 30 ng/mL anti-CD3 antibody (OKT3, Cilag, Zug, Switzerland). Cells were split or medium exchanged as necessary. Cultures were initiated in standing T75 flasks, but transferred to VueLife cell culture bags 1 week before harvest. At the end of culture, cells were harvested, pooled, characterized, counted and frozen.
as §2
To test this, we co-cultured ANRU tumor cells for 24 hours with autologous TIL in the presence and absence of a PD-L1 blocking antibody. Suitable PD-L1 blocking antibodies are commercially available, and include anti-human CD274 (B7-H1, PD-L1) Antibody (clone 29E.2A3; Cat No. 329709; Biolegend), anti-human CD274 (B7-H1, PD-L1) Antibody (clone MIH3; Cat No. 374502; Biolegend), Anti-PD-L1 (CD274) Neutralizing Antibody (Cat No. 71213; BPS Bioscience), PD-L1/B7-H1/CD274 Blocking Antibody (clone R639; Cat No. 10084-R639; Sino Biological) and Human PD-L1/B7-H1 Antibody (Cat No. AF156; R and D Systems). Tumors cell were pretreated for 12, 24, 48 and 72 hours, to check for any PD-L1 induction or suppression over time by flow cytometry, and to define the time kinetics of JQ1-induced sensitization of tumors for recognition by TIL in a co-culture. We reasoned that recognition by autologous TIL should not be affected by PD-L1 blockade at any time point if ANRU tumor cells would be PD-L1 negative under all conditions.
Herein, we addressed the question whether enhanced tumor recognition by autologous TIL after JQ1 treatment is directed at tumor-associated antigens or tumor-specific mutant antigens. Therefore we co-cultured ANRU cells with TIL sorted for their specifity towards either the tumor-associated antigen MART-1, or two different tumor-specific mutant antigens, designated ETV6.9 and NUP210.

CD73 = CD73 expression on tumor cell lines by flow cytometry; assay type: cell-based; conditions: commercially available human tumor cell lines of various origins, 72 hours JQ1 and/or IFNγ (FIG. 7)
STAT1 = STAT1 mRNA expression by RT-qPCR; assay type: cell-based, human; conditions: ANRU, ROAL and A375 cells, JQ1 with IFNγ
Excerpt: as §8

[3] = ANRU, 72 hours, IFNγ in the presence of JQ1
[4] = pretreatment with the substance alone
[5] = ANRU, 72 hours pretreatment with the substance alone

In the case of CCNC(=O)C[C@@H]1N=C(c2ccc(Cl)cc2)c2cc(OC)ccc2-n2c(C)nnc21 [I-BET762], the “HLA class I induction by IFNγ in combination with BETi” value (“HLA class I induction … with BETi” below) (HLA class I; A375, 72 hours) is reported as “clearly increased” and the “HLA class I induction … with BETi” value (HLA class I; ROAL, 72 hours) is reported as “clearly increased”.
For Cc1sc2c(c1C)C(c1ccc(Cl)cc1)=N[C@@H](CC(=O)OC(C)(C)C)c1nnc(C)n1-2 [JQ1], the “HLA class I induction by IFNγ” value (HLA class I; A375, 72 hours, IFNγ in the presence of JQ1 (FIG. 1)) was “enhances HLA class I induction by IFNγ”, the “HLA class I induction … with BETi” value (HLA class I; A375, 72 hours) was “clear dose-dependent enhancement of HLA class I induction by IFNγ” and the “HLA class I induction by IFNγ” value (HLA class I; A549 (lung carcinoma), 72 hours JQ1 and/or IFNγ) was “enhances HLA class I induction by IFNγ”. For the same compound, the “HLA class I induction by IFNγ” value (HLA class I; [3]) was “consistent enhancement of HLA class I induction by IFNγ”, the “HLA class I induction by IFNγ” value (HLA class I; HCT116 (colon carcinoma), 72 hours JQ1 and/or IFNγ) was “enhances HLA class I induction by IFNγ” and the “HLA class I induction by IFNγ” value (HLA class I; HeLa (cervical carcinoma), 72 hours JQ1 and/or IFNγ) was “enhances HLA class I induction by IFNγ”. For the same compound, the “HLA class I induction by IFNγ” value (HLA class I; KADA, 72 hours, IFNγ in the presence of JQ1) was “reduced HLA class I induction by IFNγ”, the “HLA class I induction by IFNγ” value (HLA class I; ROAL, 72 hours, IFNγ in the presence of JQ1) was “significantly more strongly induced by IFNγ” and the “HLA class I induction … with BETi” value (HLA class I; ROAL, 72 hours) was “clear dose-dependent enhancement of HLA class I induction by IFNγ”. The “Recognition by autologous TIL (IFNγ production in co-culture)” value (KADA tumor cells; pretreatment with combination of IFNγ and JQ1, versus IFNγ) was “led to a reduction in tumor cell recognition”, the “Recognition by autologous TIL (IFNγ production in co-culture)” value (KADA tumor cells; [4]) was “did not sensitize” and the PD-L1 expression (PD-L1; ANRU) was “wholly absent under all conditions”. For the same compound, the “Constitutive and IFNγ-induced PD-L1 expression” value (PD-L1; KADA) was “strongly suppressed”, the PD-L1 expression (PD-L1; ROAL) was “marginal if not absent under all conditions” and the “mRNA induction of APM components by IFNγ, time kinetics” value ([1]; ANRU, 12, 24, 48 and 72 hours, 0.4 μM JQ1 and/or 25 ng/ml IFNγ) was “potentiated the induction of APM components by IFNγ at all time points”. The “mRNA induction of APM components by IFNγ” value ([1]; ANRU, ROAL, KADA and A375 cells, 72 hours JQ1 and/or IFNγ, most pronounced for HLA class I, B2M, TAP1 and TAP2) was “potentiated their induction by IFNγ”, the “Recognition by autologous TIL (IFNγ production in co-culture)” value (ROAL tumor cells; pretreatment with combination of JQ1 and IFNγ) was “significantly better and synergistically recognize” and the “Recognition by autologous TIL (IFNγ production in co-culture)” value (ROAL tumor cells; [4]) was “did not sensitize”. The “Protein level induction of APM components by IFNγ (TAP1, TAP2, Tapasin, HLA class I heavy chain, LMP2, LMP10)” value [2] was “Enhanced induction of APM components by IFNγ”, the “JAK1 mRNA expression” value (JAK1) was “consistently increases JAK1 expression” and the “T-cell recognition (IFNγ levels in co-culture supernatants) compared to DMSO-treated tumor cells” value (A375 tumor cells) was “strongly and significantly enhanced”. For the same compound, the MYC expression (MYC) was “downregulated”, the “HLA class II upregulation by IFNγ” value (HLA class II; [3]) was “upregulation of HLA class II was actually suppressed” and the “Constitutive and IFNγ-induced HLA class II expression” value (HLA class II; early-passage melanoma cell lines, 72 hours JQ1 and/or IFNγ (FIG. 6)) was “clearly suppressed”. The “IFNγ-induced IDO expression” value (IDO) was “suppresses IFNγ-induced IDO expression”, the “Effect of PD-L1 blocking antibody on recognition of pretreated tumor cells by TIL” value (ANRU tumor cells; ANRU pretreated 12, 24, 48 and 72 hours with JQ1 and/or IFNγ, 24 hours co-culture with or without PD-L1 blocking antibody) was “no effect of PD-L1 blockade was seen” and the “Time kinetics of sensitization for recognition by TIL” value (ANRU tumor cells) was “most prominent after pretreatment with JQ1 alone for 72 hours”. For the same compound, the “Recognition by TIL sorted for MART-1, ETV6.9 and NUP210 specificity (IFNγ in co-culture supernatant)” value (ANRU tumor cells; ANRU, 0.4 μM JQ1 for 72 hours) was “improved recognition by all three TIL populations”, the “T-cell recognition by autologous TIL (IFNγ production in co-culture)” value (“T-cell recognition by autologous TIL” for short) (ANRU tumor cells; ANRU, 72 hours pretreatment with JQ1 in combination with IFNγ) was “did not lead to any increases in T-cell recognition” and the “T-cell recognition by autologous TIL” value (ANRU tumor cells; [5]) was “dose-dependent increase in T-cell recognition”. For the same compound, the “CD73 induction by IFNγ” value (CD73) was “suppresses CD73 induction by IFNγ” and the “STAT1 mRNA induction by IFNγ” value (STAT1) was “strongly enhances induction of STAT1 by IFNγ”.
“IFNγ: Interferon gamma (IFNγ), a known physiological cue for sensitization of target cells for T-cell recognition” was tested, and the “Recognition by autologous TIL (IFNγ production in co-culture)” value (KADA tumor cells; [4]) was “strongly sensitized”, the “Recognition by autologous TIL (IFNγ production in co-culture)” value (ROAL tumor cells; [4]) was “did not sensitize the cells” and the “Time kinetics of sensitization for recognition by TIL” value (ANRU tumor cells) was “did not lead to an improvement of tumor recognition”. For the same compound, the “T-cell recognition by autologous TIL” value (ANRU tumor cells; [5]) was “did not lead to any increases in T-cell recognition”.
For COc1cc2c(cc1-c1c(C)noc1C)ncc1[nH]c(=O)n([C@H](C)c3ccccn3)c12 [I-BET151], the “HLA class I induction … with BETi” value (HLA class I; A375, 72 hours) was “clearly increased” and the “HLA class I induction … with BETi” value (HLA class I; ROAL, 72 hours) was “clearly increased”.
